In US20160250213A1, “FORMULATIONS OF AZAINDOLE COMPOUNDS” (priority 2013, published 2016):
Where “and” joins values, the source holds several entries; their conditions need not be identical. Identical values can stand only once. Like-named read-outs stand apart in the source and are kept apart here. Marks after values point to notes of the source that are not given here.

How the values were obtained:
[1] = system: influenza A/PR/8/34 (5×10^3 TCID50); set-up: species or system mice; conditions: mouse, in vivo
[2] = system: Influenza A/Victoria/3/75 (H3N2) virus; assay type: in vivo, BALB/c mice
[3] = system: Influenza A/Vietnam/1203/2004 (H5N1) virus; set-up: species or system BALB/c mice; conditions: mouse, in vivo
[4] = system: A/Denver/1/57 (H1N1); test: microbe, parasite or virus in culture; assay type: cell-based; conditions: Influenza A virus, MDCK, read-out: Cell Protection Assay EC50 ± SD
[5] = system: A/Chelyabinsk/1/2006 (H1N1); test: microbe, parasite or virus in culture; assay type: cell-based; conditions: Influenza A virus, MDCK, read-out: Cell Protection Assay EC50 ± SD
[6] = system: A/South Dakota/6/2007 (H1N1); test: microbe, parasite or virus in culture; assay type: cell-based; conditions: Influenza A virus, MDCK, read-out: Cell Protection Assay EC50 ± SD
[7] = system: A/Aichi/2/68 (H3N2); test: microbe, parasite or virus in culture; assay type: cell-based; conditions: Influenza A virus, MDCK, read-out: Cell Protection Assay EC50 ± SD
[8] = system: A/Hong Kong/8/68 (H3N2); test: microbe, parasite or virus in culture; assay type: cell-based; conditions: Influenza A virus, MDCK, read-out: Cell Protection Assay EC50 ± SD
[9] = system: A/Victoria/3/75 (H3N2); test: microbe, parasite or virus in culture; assay type: cell-based; conditions: Influenza A virus, MDCK, read-out: Cell Protection Assay EC50 ± SD
[10] = system: A/Hawaii/2/2006 (H3N2); test: microbe, parasite or virus in culture; assay type: cell-based; conditions: Influenza A virus, MDCK, read-out: Cell Protection Assay EC50 ± SD
[11] = system: A/Virginia/ATCC2/2009 (H1N1); test: microbe, parasite or virus in culture; assay type: cell-based; conditions: Influenza A virus, MDCK, read-out: Cell Protection Assay EC50 ± SD
[12] = system: A/Swine/1976/31 (H1N1); test: microbe, parasite or virus in culture; assay type: cell-based; conditions: Influenza A virus, H1N1, MDCK, in Sus scrofa, read-out: Cell Protection Assay EC50 ± SD
[13] = system: A/Equine/2/Miami/63 (H3N8); test: microbe, parasite or virus in culture; assay type: cell-based; conditions: Influenza A virus, H3N8, MDCK, read-out: Cell Protection Assay EC50 ± SD
[14] = system: B/Lee/40; test: microbe, parasite or virus in culture; assay type: cell-based; conditions: Influenza B virus, MDCK, read-out: Cell Protection Assay EC50 ± SD
[15] = system: B/Russia/69; test: microbe, parasite or virus in culture; assay type: cell-based; conditions: Influenza B virus, MDCK, read-out: Cell Protection Assay EC50 ± SD
[16] = system: influenza A virus; assay type: in vivo, mice; conditions: mouse, in vivo
[17] = system: influenza virus; set-up: species or system mice; conditions: mouse, in vivo
[18] = system: influenza A/Wisconsin/67/2005 (H3N2) challenge strain virus; assay type: in vivo, humans (healthy volunteers); conditions: for Viral Shedding by Tissue Culture, AUC, median: Days 1-7
[19] = system: influenza A/Wisconsin/67/2005 (H3N2) challenge strain virus; assay type: in vivo, humans (healthy volunteers)
[20] = system: influenza A/Wisconsin/67/2005 (H3N2) challenge strain virus; assay type: in vivo, humans (healthy volunteers); remark: listed apart in the source
[21] = system: influenza A/Wisconsin/67/2005 (H3N2) challenge strain virus; assay type: in vivo, humans (healthy volunteers); conditions: for Composite Clinical Symptom, AUC, median / Influenza like Symptom, AUC, median: Day 1 through Day 7
[22] = single doses up to 1600 mg and multiple doses up to 800 mg daily for 10 days
[23] = 1 mg/kg p.o. twice a day for 10 days starting 2 hours prior to virus exposure
[24] = 3 mg/kg p.o. twice a day for 10 days starting 2 hours prior to virus exposure
[25] = 10 mg/kg p.o. twice a day for 10 days starting 2 hours prior to virus exposure
[26] = 100 mg QD 5 days, FA set N = 12
[27] = 400 mg QD 5 days, FA set N = 12
[28] = 900 mg Day 1, 600 mg Days 2-5, FA set N = 14
[29] = 1200 mg Day 1, 600 mg Days 2-5, FA set N = 14
[30] = pooled Compound (1) dose groups, FA set N = 52
[31] = 900 mg Day 1, 600 mg Days 2-5, […]
[32] = 1200 mg Day 1, 600 mg Days 2-5, […]
[33] = pooled Compound (1) dose groups, […]
[34] = 900 mg Day 1, 600 mg Days 2-5, N = 14
[35] = 1200 mg Day 1, 600 mg Days 2-5, N = 14
[36] = pooled Compound (1) dose groups, N = 52

O=C(O)[C@H]1C2CCC(CC2)C1Nc1nc(-c2c[nH]c3ncc(F)cc23)ncc1F (stereo partly shown) [Compound (1)]
Survival Rate ([1]; 0.1 mg/kg): 12.5 | Survival Rate ([1]; 0.3 mg/kg): 44.4 | Survival Rate ([1]; 1 mg/kg): 100 | MDD ± SD (mean day of death of mice that died on or before day 21) [2, 23]: 9.8 ± 1.9 | Mean Lung Parameters (Day 6): Score (hemorrhage, 0 to 4) [2, 23]: 3.2 ± 0.3^e | Mean Lung Parameters (Day 6): Virus Titer [2, 23]: 7.3 ± 0.3 Log10 CCID50/g | Mean Lung Parameters (Day 6): Weight [2, 23]: 274 ± 49 mg | Survivors/Total [2, 23]: 4/10 | Mean Lung Parameters (Day 6): Score (hemorrhage, 0 to 4) [2, 24]: 3.3 ± 0.6^e | Mean Lung Parameters (Day 6): Virus Titer [2, 24]: 7.2 ± 0.2 Log10 CCID50/g | Mean Lung Parameters (Day 6): Weight [2, 24]: 260 ± 25 mg | Mean Lung Parameters (Day 6): Score (hemorrhage, 0 to 4) [2, 25]: 0.1 ± 0.2^d | Mean Lung Parameters (Day 6): Virus Titer [2, 25]: 6.1 ± 0.5 Log10 CCID50/g | Mean Lung Parameters (Day 6): Weight [2, 25]: 164 ± 11 mg | MDD ± SD (mean day of death of mice that died on or before day 21) [3]: >21 | Mean Lung Parameters (Day 6): Virus Titer [3]: 3.75 ± 0.94 Log 10 CCID50/g | Survivors/Total [3]: 10/10 | EC50 [4]: 0.42 ± 0.19 nM | EC50 [5]: 0.7 ± 0.49 nM | EC50 [6]: 0.31 ± 0.25 nM | EC50 [7]: 1.4 ± 1.1 nM | EC50 [8]: 0.6 ± 0.11 nM | EC50 [9]: 1.3 ± 0.63 nM | EC50 [10]: 1.4 ± 0.91 nM | EC50 [11]: 1.9 ± 3 nM | EC50 [12]: 0.47 ± 0.11 nM | EC50 [13]: 0.5 ± 0.065 nM | EC50 [14]: > 10 nM | EC50 [15]: > 10 nM | survival [16]: 2/8 | half maximal reduction in lung titers [17]: 2-3 log | Viral Shedding by Tissue Culture, Duration, median [18, 26]: 0.96 days | Viral Shedding by Tissue Culture, Peak, mean [18, 26]: 2.09 log10 TCID50/mL | Viral Shedding by Tissue Culture, AUC, median [18, 26]: 1.25 log10 TCID50 mL*Day | Viral Shedding by Tissue Culture, Duration, median [18, 27]: 1.60 days | Viral Shedding by Tissue Culture, Peak, mean [18, 27]: 1.73 log10 TCID50/mL | Viral Shedding by Tissue Culture, AUC, median [18, 27]: 0.70 log10 TCID50 mL*Day | Viral Shedding by Tissue Culture, Duration, median [18, 28]: 2.71 days | Viral Shedding by Tissue Culture, Peak, mean [18, 28]: 2.68 log10 TCID50/mL | Viral Shedding by Tissue Culture, AUC, median [18, 28]: 3.20 log10 TCID50 mL*Day | Viral Shedding by Tissue Culture, Duration, median [18, 29]: 0.00 days | Viral Shedding by Tissue Culture, Peak, mean [18, 29]: 1.00 log10 TCID50/mL | Viral Shedding by Tissue Culture, AUC, median [18, 29]: 0.35 log10 TCID50 mL*Day | Viral Shedding by Tissue Culture, Duration, median [18, 30]: 0.71 days | Viral Shedding by Tissue Culture, Peak, mean [18, 30]: 1.87 log10 TCID50/mL | Viral Shedding by Tissue Culture, AUC, median [18, 30]: 0.65 log10 TCID50 mL*Day | Viral Shedding by qRT-PCR, AUC, median [19, 26]: 6.05 log10 copies/mL*Day | Viral Shedding by qRT-PCR, Duration, median [19, 26]: 0.96 days | Viral Shedding by qRT-PCR, AUC, median [19, 27]: 4.90 log10 copies/mL*Day | Viral Shedding by qRT-PCR, Duration, median [19, 27]: 1.36 days | Viral Shedding by qRT-PCR, AUC, median [19, 28]: 10.65 log10 copies/mL*Day | Viral Shedding by qRT-PCR, Duration, median [19, 28]: 2.39 days | Viral Shedding by qRT-PCR, AUC, median [19, 29]: 0.45 log10 copies/mL*Day | Viral Shedding by qRT-PCR, Duration, median [19, 29]: 0.00 days | Viral Shedding by qRT-PCR, AUC, median [19, 30]: 3.45 log10 copies/mL*Day | Viral Shedding by qRT-PCR, Duration, median [19, 30]: 0.71 days | Serology, Sero-conversion (%) [20, 31]: (68%) | Serology, Sero-conversion, n/N [20, 31]: 13/19 | Serology, Sero-conversion (%) [20, 32]: (67%) | Serology, Sero-conversion, n/N [20, 32]: 12/18 | Serology, Sero-conversion, n/N ([20]; in vivo): 11/16 and 9/19 | Serology, Sero-conversion (%) [20, 33]: (63%) | Serology, Sero-conversion, n/N [20, 33]: 45/72 | Composite Clinical Symptom, Duration, median ([21]; 100 mg QD 5 days, N = 12): 3.21 days | Composite Clinical Symptom, Peak, mean ([21]; 100 mg QD 5 days, N = 12): 3.17 Grade | Influenza like Symptom, Duration, median ([21]; 100 mg QD 5 days, N = 12): 3.21 days | Influenza like Symptom, Peak, mean ([21]; 100 mg QD 5 days, N = 12): 2.75 Grade | Composite Clinical Symptom, AUC, median ([21]; 100 mg QD 5 days, N = 12): 1.85 Grade*Day | Influenza like Symptom, AUC, median ([21]; 100 mg QD 5 days, N = 12): 1.85 Grade*Day | Composite Clinical Symptom, Duration, median ([21]; 400 mg QD 5 days, N = 12): 3.34 days | Composite Clinical Symptom, Peak, mean ([21]; 400 mg QD 5 days, N = 12): 2.83 Grade | Influenza like Symptom, Duration, median ([21]; 400 mg QD 5 days, N = 12): 3.34 days | Influenza like Symptom, Peak, mean ([21]; 400 mg QD 5 days, N = 12): 2.42 Grade | Composite Clinical Symptom, AUC, median ([21]; 400 mg QD 5 days, N = 12): 4.70 Grade*Day | Influenza like Symptom, AUC, median ([21]; 400 mg QD 5 days, N = 12): 3.80 Grade*Day | Composite Clinical Symptom, Duration, median [21, 34]: 2.69 days | Composite Clinical Symptom, Peak, mean [21, 34]: 3.71 Grade | Influenza like Symptom, Duration, median [21, 34]: 2.69 days | Influenza like Symptom, Peak, mean [21, 34]: 3.21 Grade | Composite Clinical Symptom, AUC, median [21, 34]: 1.75 Grade*Day | Influenza like Symptom, AUC, median [21, 34]: 1.75 Grade*Day | Composite Clinical Symptom, Duration, median [21, 35]: 1.88 days | Composite Clinical Symptom, Peak, mean [21, 35]: 1.50 Grade | Influenza like Symptom, Duration, median [21, 35]: 1.88 days | Influenza like Symptom, Peak, mean [21, 35]: 1.36 Grade | Composite Clinical Symptom, AUC, median [21, 35]: 1.95 Grade*Day | Influenza like Symptom, AUC, median [21, 35]: 1.75 Grade*Day | Composite Clinical Symptom, Duration, median [21, 36]: 2.34 days | Composite Clinical Symptom, Peak, mean [21, 36]: 2.79 Grade | Influenza like Symptom, Duration, median [21, 36]: 2.34 days | Influenza like Symptom, Peak, mean [21, 36]: 2.42 Grade | Composite Clinical Symptom, AUC, median [21, 36]: 2.15 Grade*Day | Influenza like Symptom, AUC, median [21, 36]: 2.05 Grade*Day | liver function abnormalities, serum phosphate decreases [22]: Neither liver function abnormalities nor serum phosphate decreases were observed
